The target of test [1] is T1, human α1G T-type channels (Homo sapiens, UniProt O43497).
T1 construct: expressed in transfected cells; host or cells: HEK cell lines
Put plainly: T-type calcium channel block, patch clamp in HEK cell lines. In kind it is cell-based. As to the method: Standard patch-clamp techniques were employed to identify blockers of T-type currents. Briefly, previously described HEK cell lines stably expressing human α1G T-type channels were used for all the recordings (passage #: 4-20, 37° C., 5% CO2). To obtain T-type currents, plastic dishes containing semi-confluent cells were positioned on the stage of a ZEISS AXIOVERT S100 microscope after replacing the culture medium with external solution (see below). Whole-cell patches were obtained using pipettes (borosilicate glass with filament, O.D.: 1.5 mm, I.D.: 0.86 mm, 10 cm length), fabricated on a SUTTER P-97 puller with resistance values of ˜5 MΩ (see below for internal solution).
T-type currents were reliably obtained by using two voltage protocols: • (1) “non-inactivating”, and (2) “inactivation”
In the non-inactivating protocol, the holding potential is set at −110 mV and with a pre-pulse at −100 mV for 1 second prior to the test pulse at −40 mV for 50 ms. In the inactivation protocol, the pre-pulse is at approximately −85 mV for 1 second, which inactivates about 15% of the T-type channels.
Test compounds were dissolved in external solution, 0.1-0.01% DMSO. After ˜10 min rest, they were applied by gravity close to the cell using a WPI microfil tubing. The “non-inactivated” pre-pulse was used to examine the resting block of a compound. The “inactivated” protocol was employed to study voltage-dependent block. However, the initial data shown below were mainly obtained using the non-inactivated protocol only. IC50 values are shown for various compounds of the invention in Table 5.
For orientation: In patch-clamp work, channel activity is measured electrically.

For test [2], the target named is T2, rat brain N-type calcium channel subunits (α1B+α2δ+β1b cDNA subunits) (Rattus norvegicus, UniProt Q02294).
T2 construct: expressed in transfected cells; host or cells: HEK 293
T2 sequence (Q02294 whole entry): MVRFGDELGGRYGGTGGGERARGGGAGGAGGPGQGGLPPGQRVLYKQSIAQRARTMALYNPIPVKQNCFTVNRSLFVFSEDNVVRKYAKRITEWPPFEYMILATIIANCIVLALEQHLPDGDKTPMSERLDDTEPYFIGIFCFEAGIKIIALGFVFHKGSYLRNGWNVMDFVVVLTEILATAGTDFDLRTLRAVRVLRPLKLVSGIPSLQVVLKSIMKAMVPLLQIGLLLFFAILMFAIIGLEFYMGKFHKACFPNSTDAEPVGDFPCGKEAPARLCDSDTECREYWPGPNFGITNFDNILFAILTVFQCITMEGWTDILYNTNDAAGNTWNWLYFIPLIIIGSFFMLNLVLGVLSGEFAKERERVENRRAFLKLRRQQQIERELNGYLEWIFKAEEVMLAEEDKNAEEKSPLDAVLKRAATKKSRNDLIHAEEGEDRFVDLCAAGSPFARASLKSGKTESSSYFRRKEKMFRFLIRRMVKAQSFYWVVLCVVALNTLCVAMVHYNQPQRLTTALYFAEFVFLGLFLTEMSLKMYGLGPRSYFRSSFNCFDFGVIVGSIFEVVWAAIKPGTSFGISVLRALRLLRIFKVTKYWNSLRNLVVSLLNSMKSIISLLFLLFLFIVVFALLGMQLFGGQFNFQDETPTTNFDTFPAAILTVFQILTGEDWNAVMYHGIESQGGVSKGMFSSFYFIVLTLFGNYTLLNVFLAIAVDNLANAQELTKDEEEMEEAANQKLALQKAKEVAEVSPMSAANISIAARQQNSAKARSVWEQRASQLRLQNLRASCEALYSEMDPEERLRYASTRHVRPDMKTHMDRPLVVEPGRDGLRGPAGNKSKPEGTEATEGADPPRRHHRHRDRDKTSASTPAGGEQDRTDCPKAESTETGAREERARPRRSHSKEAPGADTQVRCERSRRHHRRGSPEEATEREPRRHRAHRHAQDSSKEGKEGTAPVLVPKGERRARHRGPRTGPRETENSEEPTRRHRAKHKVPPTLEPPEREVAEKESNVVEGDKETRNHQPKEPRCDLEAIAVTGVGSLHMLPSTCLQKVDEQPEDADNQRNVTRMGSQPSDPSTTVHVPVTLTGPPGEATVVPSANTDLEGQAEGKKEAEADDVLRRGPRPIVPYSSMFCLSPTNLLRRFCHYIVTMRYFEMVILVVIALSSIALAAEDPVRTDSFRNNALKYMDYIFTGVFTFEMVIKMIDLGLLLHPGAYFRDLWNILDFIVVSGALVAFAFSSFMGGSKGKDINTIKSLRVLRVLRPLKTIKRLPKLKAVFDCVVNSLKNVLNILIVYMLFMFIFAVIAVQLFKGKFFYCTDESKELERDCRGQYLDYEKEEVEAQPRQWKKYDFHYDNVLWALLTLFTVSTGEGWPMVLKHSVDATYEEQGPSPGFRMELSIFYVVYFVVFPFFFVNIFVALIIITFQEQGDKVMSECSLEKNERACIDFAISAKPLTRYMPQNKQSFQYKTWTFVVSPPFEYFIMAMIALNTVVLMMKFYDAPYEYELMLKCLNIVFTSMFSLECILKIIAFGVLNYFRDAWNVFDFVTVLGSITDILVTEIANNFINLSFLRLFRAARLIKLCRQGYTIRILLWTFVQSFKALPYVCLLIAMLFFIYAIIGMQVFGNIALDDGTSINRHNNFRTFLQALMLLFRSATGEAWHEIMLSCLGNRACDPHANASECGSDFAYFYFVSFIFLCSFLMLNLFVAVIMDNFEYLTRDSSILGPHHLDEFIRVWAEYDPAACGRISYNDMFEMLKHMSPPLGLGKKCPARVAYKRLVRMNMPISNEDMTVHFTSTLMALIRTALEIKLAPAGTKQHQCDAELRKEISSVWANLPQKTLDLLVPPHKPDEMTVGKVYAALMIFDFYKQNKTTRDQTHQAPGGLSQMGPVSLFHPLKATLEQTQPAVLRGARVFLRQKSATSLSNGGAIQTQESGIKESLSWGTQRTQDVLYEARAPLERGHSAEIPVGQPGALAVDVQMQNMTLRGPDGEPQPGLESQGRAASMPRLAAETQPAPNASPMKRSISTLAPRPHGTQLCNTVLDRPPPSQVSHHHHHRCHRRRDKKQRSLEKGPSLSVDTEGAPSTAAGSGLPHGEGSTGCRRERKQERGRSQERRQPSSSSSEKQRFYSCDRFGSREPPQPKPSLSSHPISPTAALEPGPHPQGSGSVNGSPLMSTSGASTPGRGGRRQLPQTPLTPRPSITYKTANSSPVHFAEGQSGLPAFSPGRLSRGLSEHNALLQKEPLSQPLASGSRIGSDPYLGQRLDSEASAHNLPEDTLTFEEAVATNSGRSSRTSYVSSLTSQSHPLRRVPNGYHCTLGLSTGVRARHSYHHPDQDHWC
Description: N-type calcium channel block, whole cell patch clamp in HEK 293 cells. In kind it is cell-based. The note with it: holding potential −80 mV to +10 mV. As for the experimental part:
N-type calcium channel blocking activity was assayed in human embryonic kidney cells, HEK 293, stably transfected with the rat brain N-type calcium channel subunits (α1B+α2δ+β1b cDNA subunits). Alternatively, N-type calcium channels (α1B+α2δ+β1b cDNA subunits), L-type channels (α1C+α2δ+β1b cDNA subunits) and P/Q-type channels (α1A+α2δ+β1b cDNA subunits) were transiently expressed in HEK 293 cells. Briefly, cells were cultured in Dulbecco's modified eagle medium (DMEM) supplemented with 10% fetal bovine serum, 200 U/ml penicillin and 0.2 mg/ml streptomycin at 37° C. with 5% CO2. At 85% confluency cells were split with 0.25% trypsin/1 mM EDTA and plated at 10% confluency on glass coverslips. At 12 hours the medium was replaced and the cells transiently transfected using a standard calcium phosphate protocol and the appropriate calcium channel cDNA's. Fresh DMEM was supplied and the cells transferred to 28° C./5% CO2. Cells were incubated for 1 to 2 days prior to whole cell recording.
Whole cell patch clamp experiments were performed using an Axopatch 200B amplifier (Axon Instruments, Burlingame, Calif.) linked to a personal computer equipped with pCLAMP software. The external and internal recording solutions contained, respectively, 5 mM BaCl2, 10 mM MgCl2, 10 mM HEPES, 40 mM TEACl, 10 mM glucose, 87.5 mM CsCl (pH 7.2) and 108 mM CsMS, 4 mM MgCl2, 9 mM EGTA, 9 mM HEPES (pH 7.2). Currents were typically elicited from a holding potential of −80 mV to +10 mV using Clampex software (Axon Instruments). Typically, currents were first elicited with low frequency stimulation (0.067 Hz) and allowed to stabilize prior to application of the compounds. The compounds were then applied during the low frequency pulse trains for two to three minutes to assess tonic block, and subsequently the pulse frequency was increased to 0.2 Hz to assess frequency dependent block. Data were analyzed using Clampfit (Axon Instruments) and SigmaPlot 4.0 (Jandel Scientific).

For test [3], the system named is Rings from Rat Mesenteric Artery maximally pre-contracted with PE. Put plainly: Relaxation of pre-contracted rings from rat mesenteric artery. The note with it: compound at 10^−5 M, rings maximally pre-contracted with PE at 10^−4 M, read-out: Mesenteric artery Max % relax. As to the method: Sprague-Dawley rats (350-400 g, Charles River Canada) were anaesthetized with sodium pentobarbital (60 mg/kg). The mesenteric arteries were removed and suspended in a tissue bath filled with Krebs-Henseleit solution aerated with 95% O2 and 5% CO2 at 37° C. The tissues were equilibrated for one hour prior to the construction of a concentration-response curve to phenylephrine (PE). Following recovery of the response to PE, a second curve to PE was constructed at 5 min after the addition of a calcium channel blocker (n=2-8, each from a separate rat) or the vehicle (50 μl of equimolar DMSO). After recovery, a third and fourth curve to PE were constructed after addition of a higher concentration of blocker or vehicle. The protocol was repeated using portal veins (n=4, each from a separate rat).

Test [4] relates to Rings from Rat Portal Vein maximally pre-contracted with PE. Put plainly: Relaxation of pre-contracted rings from rat portal vein. As to conditions: compound at 10^−5 M, rings maximally pre-contracted with PE at 10^−4 M, read-out: Portal vein Max % relax.
Test [5] in a line: Blood pressure reduction in SHR. In kind it is in vivo.
Test [6] relates to T-type over L-type channels. As to conditions: cited from earlier work.
Setting [7] is: non-inactivating protocol, pre-pulse −100 mV (resting block), read-out: IC50 @ −100 mV.
The mark [8] stands for this setting: −80 mV (inactivation protocol, voltage-dependent block), read-out: IC50 @ −80 mV.
Where [9] appears, read: low frequency stimulation 0.067 Hz (tonic block), read-out: IC50 @ 0.067 Hz.
Setting [10] is: pulse frequency 0.2 Hz (frequency dependent block), read-out: IC50 @ 0.2 Hz.

The values below come from patent US7511077B2, “Diamine calcium channel blockers” (Neuromed Pharmaceuticals Ltd., priority 2005, dated 2009).

Read-outs that look alike come from different tables or passages of the source.

One may read the IC50 as the point on the concentration scale where inhibition reaches its midpoint.

T1 sequence (O43497 whole entry): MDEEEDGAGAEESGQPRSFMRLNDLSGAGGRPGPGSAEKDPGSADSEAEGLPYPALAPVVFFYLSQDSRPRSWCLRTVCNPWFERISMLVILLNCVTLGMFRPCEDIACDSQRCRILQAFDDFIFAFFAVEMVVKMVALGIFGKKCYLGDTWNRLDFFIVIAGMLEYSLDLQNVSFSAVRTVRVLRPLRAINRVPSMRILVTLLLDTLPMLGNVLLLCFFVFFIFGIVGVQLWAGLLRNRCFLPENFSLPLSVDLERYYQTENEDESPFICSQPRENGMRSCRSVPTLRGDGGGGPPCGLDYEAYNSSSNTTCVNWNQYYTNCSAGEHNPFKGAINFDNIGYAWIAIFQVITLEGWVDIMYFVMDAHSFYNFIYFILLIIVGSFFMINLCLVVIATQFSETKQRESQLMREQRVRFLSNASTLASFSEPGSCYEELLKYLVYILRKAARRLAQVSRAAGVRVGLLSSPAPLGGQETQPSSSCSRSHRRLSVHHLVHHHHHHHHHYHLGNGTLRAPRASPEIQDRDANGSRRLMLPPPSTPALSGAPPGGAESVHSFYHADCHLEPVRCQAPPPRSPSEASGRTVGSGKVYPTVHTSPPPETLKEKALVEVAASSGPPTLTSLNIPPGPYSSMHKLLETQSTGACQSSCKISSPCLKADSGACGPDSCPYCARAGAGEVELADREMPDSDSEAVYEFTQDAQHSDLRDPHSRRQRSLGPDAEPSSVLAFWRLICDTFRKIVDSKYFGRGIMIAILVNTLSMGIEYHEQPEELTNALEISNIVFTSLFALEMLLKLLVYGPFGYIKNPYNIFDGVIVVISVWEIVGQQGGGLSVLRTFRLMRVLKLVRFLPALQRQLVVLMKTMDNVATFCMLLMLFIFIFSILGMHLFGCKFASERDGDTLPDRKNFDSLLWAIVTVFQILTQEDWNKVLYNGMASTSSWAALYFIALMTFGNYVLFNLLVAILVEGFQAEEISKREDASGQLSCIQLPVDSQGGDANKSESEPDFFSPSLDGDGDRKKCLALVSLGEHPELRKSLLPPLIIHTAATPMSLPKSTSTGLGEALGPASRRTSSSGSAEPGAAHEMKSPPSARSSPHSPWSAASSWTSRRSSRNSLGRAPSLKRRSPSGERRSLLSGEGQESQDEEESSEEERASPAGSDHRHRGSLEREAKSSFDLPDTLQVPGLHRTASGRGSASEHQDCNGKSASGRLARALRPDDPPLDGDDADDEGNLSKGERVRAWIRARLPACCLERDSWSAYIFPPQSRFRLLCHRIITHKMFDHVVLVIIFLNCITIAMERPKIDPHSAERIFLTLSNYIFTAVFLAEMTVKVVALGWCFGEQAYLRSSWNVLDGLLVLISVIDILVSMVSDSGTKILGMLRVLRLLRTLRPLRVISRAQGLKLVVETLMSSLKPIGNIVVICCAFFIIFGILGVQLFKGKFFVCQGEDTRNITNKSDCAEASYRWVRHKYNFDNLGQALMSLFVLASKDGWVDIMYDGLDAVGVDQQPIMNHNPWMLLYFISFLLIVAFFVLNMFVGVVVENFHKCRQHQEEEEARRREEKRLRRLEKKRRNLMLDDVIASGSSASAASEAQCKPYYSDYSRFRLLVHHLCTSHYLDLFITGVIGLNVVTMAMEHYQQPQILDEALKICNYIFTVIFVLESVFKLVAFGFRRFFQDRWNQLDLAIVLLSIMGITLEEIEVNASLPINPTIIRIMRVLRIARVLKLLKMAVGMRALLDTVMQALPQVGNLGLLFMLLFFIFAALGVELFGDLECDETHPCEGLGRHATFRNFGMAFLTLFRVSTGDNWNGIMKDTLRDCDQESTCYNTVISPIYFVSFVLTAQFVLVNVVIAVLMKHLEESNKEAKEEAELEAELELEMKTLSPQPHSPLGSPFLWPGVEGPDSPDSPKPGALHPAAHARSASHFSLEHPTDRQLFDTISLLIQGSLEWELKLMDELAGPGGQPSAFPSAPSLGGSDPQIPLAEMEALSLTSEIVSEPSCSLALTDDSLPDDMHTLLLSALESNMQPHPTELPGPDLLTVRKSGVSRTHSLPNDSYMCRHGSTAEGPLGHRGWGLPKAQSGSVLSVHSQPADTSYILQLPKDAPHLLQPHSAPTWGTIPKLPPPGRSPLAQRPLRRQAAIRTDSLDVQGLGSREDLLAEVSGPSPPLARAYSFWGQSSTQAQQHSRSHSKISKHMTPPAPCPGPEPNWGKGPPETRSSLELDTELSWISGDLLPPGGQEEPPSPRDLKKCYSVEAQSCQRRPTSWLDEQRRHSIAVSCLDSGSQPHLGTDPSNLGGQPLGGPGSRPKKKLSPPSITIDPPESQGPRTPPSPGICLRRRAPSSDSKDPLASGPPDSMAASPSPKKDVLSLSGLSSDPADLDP

On to `CC(C)(C)c1ccc(C(=O)NC/C=C\CNC(=O)CCCCC(c2ccc(F)cc2)c2ccc(F)cc2)cc1` [Compound P4, N-{(Z)-4-[6,6-Bis-(4-fluoro-phenyl)-hexanoylamino]-but-2-enyl}-4-tert-butyl-benzamide], for which the IC50 in test [1] (setting [7]) was 38 nM; in test [1] (setting [8]), 12 nM; in test [2] (setting [9]), 86 nM; in test [2] (setting [10]), 59 nM. Moreover, the Emax at 10 µM in test [3] stood at 8%.

As to `O=C(CCCCC(c1ccc(F)cc1)c1ccc(F)cc1)NC/C=C\CNC(=O)c1cc(C(F)(F)F)cc(C(F)(F)F)c1` [Compound P5, N-{(Z)-4-[6,6-Bis-(4-fluoro-phenyl)-hexanoylamino]-but-2-enyl}-3,5-bis-trifluoromethyl-benzamide], the IC50 in test [1] (setting [7]) stood at 27 nM; in test [1] (setting [8]) it was 7 nM; in test [2] (setting [9]), 74 nM; in test [2] (setting [10]), 46 nM. The Emax at 10 µM in test [3] came out at 10%.

Take `O=C(CCCCC(c1ccc(F)cc1)c1ccc(F)cc1)NC/C=C\CNC(=O)COc1ccc(Cl)cc1` [Compound P6, 6,6-Bis-(4-fluoro-phenyl)-hexanoic acid{(Z)-4-[2-(4-chloro-phenoxy)-acetylamino]-but-2-enyl}-amide]: the 50% inhibitory concentration (IC50) was found to be 128 nM in test [1] (setting [7]), 67 nM in test [1] (setting [8]), 58 nM in test [2] (setting [9]) and 27 nM in test [2] (setting [10]). Further, the Emax at 10 µM amounted to 35% in test [3] and 28% in test [4].

Consider `O=C(CCCCC(c1ccc(F)cc1)c1ccc(F)cc1)NC/C=C\CNC(=O)c1ccc(F)cc1` [Compound P10, N-{(Z)-4-[6,6-Bis-(4-fluoro-phenyl)-hexanoylamino]-but-2-enyl}-4-fluoro-benzamide], for which the IC50 in test [1] (setting [7]) turned out to be 20 nM; in test [1] (setting [8]), 6 nM; in test [2] (setting [9]), 182 nM; in test [2] (setting [10]) it was 112 nM. The values for the Emax at 10 µM in test [3] and in test [4] were 35% and 38%, respectively.

Turning to `O=C(CCCCC(c1ccc(F)cc1)c1ccc(F)cc1)NC/C=C/CNC(=O)c1cc(C(F)(F)F)cc(C(F)(F)F)c1` [Compound P15, N-{(E)-4-[6,6-Bis-(4-fluoro-phenyl)-hexanoylamino]-but-2-enyl}-3,5-bis-trifluoromethyl-benzamide], the IC50 in test [1] (setting [7]) worked out at 54 nM; in test [1] (setting [8]), 21 nM; in test [2] (setting [9]), 19 nM; in test [2] (setting [10]) it was 127 nM. The Emax at 10 µM in test [3] was 9%.

For `COc1c(C(C)(C)C)cc(C(=O)NCC#CCNC(=O)CCCCC(c2ccc(F)cc2)c2ccc(F)cc2)cc1C(C)(C)C` [Compound P23, N-{4-[6,6-Bis-(4-fluoro-phenyl)-hexanoylamino]-but-2-ynyl}-3,5-di-tert-butyl-4-methoxy-benzamide], the Emax at 10 µM in test [3] was 0%.

As to `CC(C)(C)c1ccc(C(=O)NCC#CCNC(=O)CCCCC(c2ccc(F)cc2)c2ccc(F)cc2)cc1` [Compound P24, N-{4-[6,6-Bis-(4-fluoro-phenyl)-hexanoylamino]-but-2-ynyl}-4-tert-butyl-benzamide], the Emax at 10 µM in test [3] worked out at 0%.

Regarding `Cc1ccc(C(=O)NCC#CCNC(=O)CCCCC(c2ccc(F)cc2)c2ccc(F)cc2)cc1` [Compound P26, N-{4-[6,6-Bis-(4-fluoro-phenyl)-hexanoylamino]-but-2-ynyl}-4-methyl-benzamide], the IC50 in test [1] (setting [7]) was found to be 336 nM; in test [1] (setting [8]) it was 202 nM; in test [2] (setting [9]) it was 144 nM; in test [2] (setting [10]), 40 nM. For the same molecule, the results for the Emax at 10 µM in test [3] and in test [4] were 40% and 34%, respectively.

As to `COc1ccc(C(=O)NCC#CCNC(=O)CCCCC(c2ccc(F)cc2)c2ccc(F)cc2)cc1` [Compound P27, N-{4-[6,6-Bis-(4-fluoro-phenyl)-hexanoylamino]-but-2-ynyl}-4-methoxy-benzamide], the Emax at 10 µM in test [3] came out at 41%; in test [4], 51%.

On to `O=C(CCCCC(c1ccc(F)cc1)c1ccc(F)cc1)NCC#CCNC(=O)c1ccc(Cl)cc1` [Compound P28, N-{4-[6,6-Bis-(4-fluoro-phenyl)-hexanoylamino]-but-2-ynyl}-4-chloro-benzamide], for which the IC50 was 72 nM in test [1] (setting [7]), 29 nM in test [1] (setting [8]), 360 nM in test [2] (setting [9]) and 360 nM in test [2] (setting [10]). The “BP SHR at 4 hrs % reduction” value in test [5] worked out at 13 n = 4%. Also, the Emax at 10 µM in test [3] is 61%; in test [4] it was 25%.

Turning to `O=C(CCCCC(c1ccc(F)cc1)c1ccc(F)cc1)NCC#CCNC(=O)c1ccc(F)cc1` [Compound P29, N-{4-[6,6-Bis-(4-fluoro-phenyl)-hexanoylamino]-but-2-ynyl}-4-fluoro-benzamide], the IC50 in test [1] (setting [7]) turned out to be 696 nM; in test [1] (setting [8]) it was 101 nM; in test [2] (setting [9]) it was 290 nM; in test [2] (setting [10]), 290 nM. Besides, the Emax at 10 µM in test [3] came out at 63%; in test [4], 51%.

Turning to `O=C(CC(c1ccccc1)c1ccccc1)NCC#CCN(Cc1ccccn1)Cc1ccccn1` [Compound P32, N-[4-(Bis-pyridin-2-ylmethyl-amino)-but-2-ynyl]-3,3-diphenyl-propionamide], the IC50 worked out at 1800 nM in test [1] (setting [7]), 1100 nM in test [1] (setting [8]), 2200 nM in test [2] (setting [9]) and 568 nM in test [2] (setting [10]). Further, the Emax at 10 µM in test [3] came out at 50%; in test [4], 49%.

As for `O=C(CCCCC(c1ccc(F)cc1)c1ccc(F)cc1)NCCCCNC(=O)COc1ccc(Cl)cc1` [Compound P36, 6,6-Bis-(4-fluoro-phenyl)-hexanoic acid{4-[2-(4-chloro-phenoxy)-acetylamino]-butyl}-amide], the IC50 in test [1] (setting [7]) was 63 nM; in test [1] (setting [8]), 29 nM; in test [2] (setting [9]), 39 nM; in test [2] (setting [10]) it was 10 nM.

With `CC(C)c1ccc(C(=O)NCCCCNC(=O)CCCCC(c2ccc(F)cc2)c2ccc(F)cc2)cc1` [Compound P37, N-{4-[6,6-Bis-(4-fluoro-phenyl)-hexanoylamino]-butyl}-4-isopropyl-benzamide], the IC50 in test [1] (setting [7]) is 31 nM; in test [1] (setting [8]), 8 nM; in test [2] (setting [9]) it was 310 nM; in test [2] (setting [10]), 300 nM. Further, the Emax at 10 µM in test [3] came to 42%; in test [4] it was 51%.

As to `COCC(=O)O[C@]1(CCN(C)CCCc2nc3ccccc3[nH]2)CCc2cc(F)ccc2[C@@H]1C(C)C` [Mibefradil], the “selective for T-type over L-type channels” value in test [6] is 10-30 fold.
